Reference: patent publication US20240165148A1, “HYALURONIC ACID-CONJUGATED DIPALMITOYL PHOSPHATIDYL ETHANOLAMINE IN COMBINATION WITH NON-STEROIDAL ANTI-INFLAMMATORY DRUGS (NSAIDS) FOR TREATING OR ALLEVIATING INFLAMMATORY DISEASES” (priority 2021, published 2024)
Entries after “also recorded” stand apart in the source; their conditions may differ.

Assays:
[1] = tested on: LTB4 production in the hypothalamus (HT); details: LPS-stimulated rats, Student's T test
Description: (§1) Male Sprague-Dawley rats were purchased from Harlan laboratories, fed ad libitum and housed in accordance with animal facility guidelines. Animals were assigned 10 each to the 7 groups, in accordance with the treatment protocol described below. Body temperature (BT) was measured at all treatment time-points, to evaluate the effects of drug treatment on the LPS-induced changes in BT. On the second day of the experiment, 2 hours post- drug treatment, rats were sacrificed by decapitation after a short anesthesia (with a mixture of isoflurane-oxygen in air inhalation), blood was collected and brain regions (hypothalamus and hippocampus) immediately extracted. Brain regions were manually homogenized in a PBS solution containing a cocktail of phosphatase/protease inhibitors. Homogenates were centrifuged at 4° C., 10,000 rpm, for 10 minutes. Supernatants were collected and stored at −80° C. for further determination.
(§2) Leukotriene B4 (LTB4) levels were determined in the hypothalamus and hippocampus samples, using commercially available ELISA kits.
(§3) Seven groups of rats, ten rats in each group, were administered treatment intra-peritoneally, according to the following treatment regimens: • 1)- Control group- Animals were treated with vehicle control (NaCl 0.9% 0.2 ml); • 2) LPS: Animals were treated with vehicle control at 6 and 2 hours prior to LPS (1 mg/kg) injection. […]

[2] = tested on: LTB4 production in the hippocampus (HC); details: LPS-stimulated rats, Student's T test
Description: as §1, §2, §3

“Di-palmitoyl (C-16) phosphatidyl ethanolamine (DPPE) conjugated to hyaluronic acid (Hy) [HyDPPE]” was tested, and the “Effect on LPS-induced LTB4 production (in words)” value [1] was “counteracted the LPS-induced production of LTB4” and the “Effect on LPS-induced LTB4 production (in words)” value [2] was “counteracted the LPS-induced production of LTB4; also recorded: reversed the increased LTB4 production”.
